Source: the NIST ThermoML archive (doi:10.1016/j.jct.2011.11.025)
± gives the expanded uncertainty stated by the source.

Experiment: activity coefficient (dimensionless); of the first substance listed, at infinite dilution; xn = mol fraction of the nth substance listed
Settings: Liquid, Chromatography, x1 = 0

| SMILES | activity coefficient (318.15 K) | activity coefficient (328.15 K) | activity coefficient (338.15 K) | activity coefficient (348.15 K) | activity coefficient (358.15 K) | activity coefficient (368.15 K) |
| --- | --- | --- | --- | --- | --- | --- |
| CCCOCCC [dipropyl ether] + CCCCCCn1cc[n+](C)c1.N#C[B-](C#N)(C#N)C#N | 3.82 ± 0.17 | 3.77 ± 0.17 | 3.73 ± 0.17 | 3.74 ± 0.17 | 3.72 ± 0.17 | 3.73 ± 0.17 |
| CC(C)CO [2-methyl-1-propanol] + CCCCCCn1cc[n+](C)c1.N#C[B-](C#N)(C#N)C#N | 1.44 ± 0.05 | 1.31 ± 0.05 | 1.2 ± 0.1 | 1.11 ± 0.03 | 1.04 ± 0.03 | 0.977 ± 0.025 |
| C#CCCCC [1-hexyne] + CCCCCCn1cc[n+](C)c1.N#C[B-](C#N)(C#N)C#N | 2.17 ± 0.1 | 2.19 ± 0.1 | 2.2 ± 0.1 | 2.24 ± 0.1 | 2.26 ± 0.1 | 2.3 ± 0.1 |
| C1CCCC1 [cyclopentane] + CCCCCCn1cc[n+](C)c1.N#C[B-](C#N)(C#N)C#N | 4.65 ± 0.21 | 4.45 ± 0.2 | 4.28 ± 0.2 | 4.14 ± 0.19 | 4.02 ± 0.18 | 3.93 ± 0.18 |
| CC(=O)O [acetic acid] + CCCCCCn1cc[n+](C)c1.N#C[B-](C#N)(C#N)C#N | – | 0.285 ± 0.036 | 0.298 ± 0.036 | 0.311 ± 0.035 | 0.323 ± 0.035 | 0.335 ± 0.035 |
| CCC(C)CC [3-methylpentane] + CCCCCCn1cc[n+](C)c1.N#C[B-](C#N)(C#N)C#N | 10.5 ± 0.5 | 9.96 ± 0.46 | 9.5 ± 0.44 | 9.15 ± 0.42 | 8.81 ± 0.4 | 8.6 ± 0.39 |
| Cc1ccc(C)cc1 [1,4-dimethylbenzene] + CCCCCCn1cc[n+](C)c1.N#C[B-](C#N)(C#N)C#N | 1.33 ± 0.05 | 1.36 ± 0.05 | 1.39 ± 0.05 | 1.42 ± 0.05 | 1.44 ± 0.05 | 1.47 ± 0.06 |
| CCC(=O)CC [pentan-3-one] + CCCCCCn1cc[n+](C)c1.N#C[B-](C#N)(C#N)C#N | 0.478 ± 0.033 | 0.498 ± 0.033 | 0.518 ± 0.032 | 0.536 ± 0.032 | 0.551 ± 0.032 | 0.569 ± 0.031 |
| CCCC(C)=O [pentan-2-one] + CCCCCCn1cc[n+](C)c1.N#C[B-](C#N)(C#N)C#N | 0.497 ± 0.033 | 0.513 ± 0.032 | 0.529 ± 0.032 | 0.544 ± 0.032 | 0.556 ± 0.032 | 0.572 ± 0.031 |
| CCC(=O)OC [methyl propanoate] + CCCCCCn1cc[n+](C)c1.N#C[B-](C#N)(C#N)C#N | 0.609 ± 0.031 | 0.628 ± 0.031 | 0.648 ± 0.03 | 0.668 ± 0.03 | 0.685 ± 0.03 | 0.705 ± 0.029 |
| CCc1ccccc1 [ethylbenzene] + CCCCCCn1cc[n+](C)c1.N#C[B-](C#N)(C#N)C#N | 1.39 ± 0.05 | 1.41 ± 0.05 | 1.43 ± 0.05 | 1.45 ± 0.05 | 1.47 ± 0.06 | 1.49 ± 0.06 |
| C1CCCCCC1 [cycloheptane] + CCCCCCn1cc[n+](C)c1.N#C[B-](C#N)(C#N)C#N | 7.96 ± 0.37 | 7.46 ± 0.34 | 7.07 ± 0.32 | 6.76 ± 0.31 | 6.45 ± 0.3 | 6.21 ± 0.28 |
| Cc1ccccc1 [toluene] + CCCCCCn1cc[n+](C)c1.N#C[B-](C#N)(C#N)C#N | 0.975 ± 0.025 | 0.993 ± 0.025 | 1.02 ± 0.03 | 1.04 ± 0.03 | 1.06 ± 0.03 | 1.08 ± 0.03 |
| CO [methanol] + CCCCCCn1cc[n+](C)c1.N#C[B-](C#N)(C#N)C#N | 0.837 ± 0.027 | 0.786 ± 0.028 | 0.745 ± 0.029 | 0.704 ± 0.029 | 0.668 ± 0.03 | 0.633 ± 0.031 |
| C=CCCCCCCCC [1-decene] + CCCCCCn1cc[n+](C)c1.N#C[B-](C#N)(C#N)C#N | 21.5 ± 1 | 20.5 ± 0.9 | 19.3 ± 0.9 | 18.5 ± 0.9 | 17.6 ± 0.8 | 16.9 ± 0.8 |
| C1=CCCCC1 [cyclohexene] + CCCCCCn1cc[n+](C)c1.N#C[B-](C#N)(C#N)C#N | 3.48 ± 0.16 | 3.38 ± 0.15 | 3.27 ± 0.15 | 3.25 ± 0.15 | 3.17 ± 0.14 | 3.14 ± 0.14 |
| CCCCCCCCCC [decane] + CCCCCCn1cc[n+](C)c1.N#C[B-](C#N)(C#N)C#N | 43.6 ± 2 | 40 ± 1.9 | 36.4 ± 1.7 | 33.8 ± 1.6 | 31.3 ± 1.5 | 29.3 ± 1.4 |
| C=CCCCC [hex-1-ene] + CCCCCCn1cc[n+](C)c1.N#C[B-](C#N)(C#N)C#N | 6.13 ± 0.28 | 5.88 ± 0.27 | 5.71 ± 0.26 | 5.58 ± 0.26 | 5.44 ± 0.25 | 5.35 ± 0.24 |
| C1COCCO1 [1,4-dioxane] + CCCCCCn1cc[n+](C)c1.N#C[B-](C#N)(C#N)C#N | 0.362 ± 0.035 | 0.381 ± 0.034 | 0.401 ± 0.034 | 0.419 ± 0.034 | 0.435 ± 0.033 | 0.454 ± 0.033 |
| CCCCO [butan-1-ol] + CCCCCCn1cc[n+](C)c1.N#C[B-](C#N)(C#N)C#N | 1.43 ± 0.05 | 1.32 ± 0.05 | 1.22 ± 0.04 | 1.14 ± 0.03 | 1.07 ± 0.03 | 1.01 ± 0.03 |
| CCCCCC [hexane] + CCCCCCn1cc[n+](C)c1.N#C[B-](C#N)(C#N)C#N | 11.8 ± 0.5 | 11.2 ± 0.5 | 10.6 ± 0.5 | 10.2 ± 0.5 | 9.79 ± 0.45 | 9.53 ± 0.44 |
| CCCC(=O)OC [methyl butanoate] + CCCCCCn1cc[n+](C)c1.N#C[B-](C#N)(C#N)C#N | 0.664 ± 0.03 | 0.684 ± 0.03 | 0.701 ± 0.029 | 0.715 ± 0.029 | 0.733 ± 0.029 | 0.751 ± 0.029 |
| C#CCCCCCC [1-octyne] + CCCCCCn1cc[n+](C)c1.N#C[B-](C#N)(C#N)C#N | 3.99 ± 0.18 | 3.97 ± 0.18 | 3.96 ± 0.18 | 3.98 ± 0.18 | 3.97 ± 0.18 | 3.99 ± 0.18 |
| CC1CCCCC1 [methylcyclohexane] + CCCCCCn1cc[n+](C)c1.N#C[B-](C#N)(C#N)C#N | 8.87 ± 0.41 | 8.35 ± 0.38 | 7.87 ± 0.36 | 7.58 ± 0.35 | 7.24 ± 0.33 | 7 ± 0.32 |
| CCC[N+](=O)[O-] [1-nitropropane] + CCCCCCn1cc[n+](C)c1.N#C[B-](C#N)(C#N)C#N | – | 0.497 ± 0.033 | 0.503 ± 0.032 | 0.508 ± 0.032 | 0.511 ± 0.032 | 0.518 ± 0.032 |
| Cc1ccccc1C [1,2-dimethylbenzene] + CCCCCCn1cc[n+](C)c1.N#C[B-](C#N)(C#N)C#N | 1.19 ± 0.04 | 1.22 ± 0.04 | 1.24 ± 0.04 | 1.26 ± 0.04 | 1.28 ± 0.04 | 1.31 ± 0.05 |
